≈ marks a conversion by molar mass, not a printed value.

60 compounds from patent publication US20050113450A1, “Antibacterial agents” (priority 2002, published 2005) can be followed below.

This experiment relates to SA 9218. Put plainly: MIC by standard agar dilution method. It is filed as cell-based. As to conditions: Mueller Hinton agar, 10^4 to 10^5 cells per spot, incubated overnight at 35° C., lowest concentration that inhibits visible growth. The gist of the method: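 MIC read after overnight 35 °C incubation as lowest drug level preventing visible growth. Inoculum of roughly 10^4–10^5 cells per spot (0.5 McFarland, 1:20 in TSB) applied to Mueller Hinton agar containing serial 2-fold compound dilutions.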

With `O=C(Nc1ccc(Br)cc1C(=O)O)c1cc(S(=O)(=O)N2CCc3ccc(Cl)cc32)ccc1Br`, the MIC (usually the least concentration at which growth counts as inhibited) came to 2 µg/mL (≈ 3.25 µM).

With `O=C(O)c1ccc(NS(=O)(=O)c2ccc(C(=O)Nc3ccc(Br)cc3C(=O)O)cc2)cc1` [PNU-276817], it took 4 µg/mL (≈ 7.7 µM) to inhibit growth (MIC).

Regarding `O=C(Nc1ccc(Br)cc1C(=O)O)c1cccc(OCc2cccc(F)c2)c1`, the MIC was 16 µg/mL (≈ 36 µM).

In the case of `COc1ccc(C(=O)Nc2ccc(Br)cc2C(=O)O)cc1F`, it took 16 µg/mL (≈ 43.5 µM) to inhibit growth (MIC).

On to `O=C(Nc1ccc(Br)cc1C(=O)O)c1cccc(OCc2ccncc2)c1`, for which the minimal inhibitory concentration (MIC) was > 128 µg/mL.

In turn, `O=C(Nc1ccc(Br)cc1C(=O)O)c1cccc(Sc2ccccc2)c1` [PHA-526580] returned an MIC of 1 µg/mL (≈ 2.33 µM).

`COc1cc(NC(=S)Nc2cccc(C(=O)Nc3ccc(Br)cc3C(=O)O)c2)cc(OC)c1OC` [PHA-713406]: it took 64 µg/mL (≈ 114 µM) to inhibit growth (MIC).

As for `O=C(Nc1ccc(Br)cc1C(=O)O)c1ccc(OCCN2CCCC2=O)cc1`, the MIC was > 128 µg/mL.

In the case of `CC1CC(C)CN(S(=O)(=O)c2ccc(C(=O)Nc3ccc(C#N)cc3C(=O)O)cc2)C1` (stereo not drawn) [PHA-571234], the MIC turned out to be 8 µg/mL (≈ 18.1 µM).

With `CC(C)(C)c1ccc(-c2ccc(C(=O)Nc3ccc(C#N)cc3C(=O)O)cc2)cc1`, the lowest concentration to inhibit growth (MIC) was 32 µg/mL (≈ 80.3 µM).

`O=C(Nc1ccc(Cl)cc1C(=O)O)c1cccc(C(NC2CCCC2)c2ccccc2)c1` (stereo not drawn) returned a minimal inhibitory concentration (MIC) of 4 µg/mL (≈ 8.91 µM). Compared with the last compound, the MIC is about 8-fold lower.

`O=C(Nc1ccc(I)cc1C(=O)O)c1ccc(S(=O)(=O)N2CCSC2)cc1` showed an MIC of 32 µg/mL (≈ 61.7 µM). Against the preceding compound, the MIC is about 8-fold higher.

`CSc1cccc(NC(=S)Nc2cccc(C(=O)Nc3ccc(Br)cc3C(=O)O)c2)c1` [PHA-713407] yielded an MIC of 32 µg/mL (≈ 62 µM).

On to `O=C(O)c1cc(Br)ccc1NC(=O)c1cccc2c1-c1ccccc1C2=O`, for which the MIC stood at 128 µg/mL (≈ 303 µM).

For the compound `O=C(Nc1ccc(Br)cc1C(=O)O)c1ccc2c(c1)OCO2`, the MIC came to 16 µg/mL (≈ 43.9 µM).

Compound `N#Cc1ccc(NC(=O)c2ccc(F)cc2)c(C(=O)O)c1` yielded a minimum inhibitory concentration (MIC) of 128 µg/mL (≈ 450 µM).

As to `O=C(Nc1ccc(Br)cc1C(=O)O)c1ccc(NS(=O)(=O)c2ccc(Cl)c(Cl)c2)cc1` [PHA-708997], inhibition of growth (MIC) required 8 µg/mL (≈ 14.7 µM). This MIC is about 16-fold lower than that of the compound before.

Compound `O=C(Nc1ccc(Br)cc1C(=O)O)c1cc(Cl)cc(Cl)c1` returned an MIC of 8 µg/mL (≈ 20.6 µM).

In turn, `O=C(Nc1ccc(Br)cc1C(=O)O)c1cc(S(=O)(=O)Nc2ccc(F)c(Cl)c2)ccc1Br` returned an MIC of 32 µg/mL (≈ 52.7 µM).

As to `CN(CCc1ccccc1)S(=O)(=O)c1ccc(C(=O)Nc2ccc(C#N)cc2C(=O)O)cc1` [PHA-571169], inhibition of growth (MIC) required 32 µg/mL (≈ 69 µM).

In turn, `COc1ccc(C(=O)Nc2ccc(C#N)cc2C(=O)O)cc1F` gave an MIC of 8 µg/mL (≈ 25.5 µM).

For `O=C(Nc1ccc(Br)cc1C(=O)O)c1cccc(OCC2CCCC2)c1`, inhibition of growth (MIC) required 128 µg/mL (≈ 306 µM).

As to `O=C(Nc1ccc(Cl)cc1C(=O)O)c1ccc(C(=O)c2ccccc2)cc1`, the lowest concentration to inhibit growth (MIC) was 4 µg/mL (≈ 10.5 µM). Against the preceding compound, the MIC is about 32-fold lower.

The compound `CC1(C)CN(S(=O)(=O)c2cccc(C(=O)Nc3ccc(C#N)cc3C(=O)O)c2)c2ccccc21` [PHA-555027] showed an MIC of 1 µg/mL (≈ 2.1 µM).

As for `Cc1ccc(C(=O)Nc2ccc(Br)cc2C(=O)O)cc1S(=O)(=O)N(C)c1ccc(Cl)cc1` [drawing 1134], the “SA 9218 MIC” value amounted to 1 µg/mL.

For `N#Cc1ccc(NC(=O)c2ccc(S(=O)(=O)N3CCC(C#N)(c4ccccc4)CC3)cc2)c(C(=O)O)c1` [PHA-571188], the MIC was 8 µg/mL (≈ 15.5 µM).

With `CCN(CC)c1ccc(NS(=O)(=O)c2cc(C(=O)Nc3ccc(Br)cc3C(=O)O)ccc2C)cc1`, the MIC worked out at 64 µg/mL (≈ 114 µM). This MIC is about 8-fold higher than that of the compound before.

For the compound `O=C(Nc1ccc(I)cc1C(=O)O)c1cccc(S(=O)(=O)N2CCN(c3ccccn3)CC2)c1`, 32 µg/mL (≈ 54 µM) was the least that counted as inhibitory (MIC).

For `COc1ccc([N+](=O)[O-])c(C(=O)Nc2ccc(Br)cc2C(=O)O)c1`, the MIC is > 128 µg/mL.

`CN(CCC(O)c1ccccc1)S(=O)(=O)c1ccc(C(=O)Nc2ccc(C#N)cc2C(=O)O)cc1` (stereo not drawn) [PHA-656861]: the MIC is 32 µg/mL (≈ 64.8 µM).

For the compound `COc1cc(Br)c(C(=O)Nc2ccc(Br)cc2C(=O)O)cc1OC`, the MIC is > 128 µg/mL.

Compound `O=C(Nc1ccc(C(=O)Nc2ccc(Br)cc2C(=O)O)cc1)Nc1ccc(F)cc1F` [PHA-713394] returned an MIC of 128 µg/mL (≈ 261 µM).

In the case of `CCN(CC)C(=O)c1c(F)ccc(F)c1C(=O)Nc1ccc(C#N)cc1C(=O)O`, the MIC was > 128 µg/mL.

Compound `O=C(Nc1ccc(Cl)cc1C(=O)O)c1ccc(C(=O)c2ccc3c(c2)OCO3)cc1` showed an MIC of 2 µg/mL (≈ 4.72 µM).

`CCCNC(c1cccc(C(=O)Nc2ccc(Cl)cc2C(=O)O)c1)c1cccc(S(C)(=O)=O)c1` (stereo not drawn) yielded a minimal inhibitory concentration (MIC) of 32 µg/mL (≈ 63.9 µM).

`N#Cc1ccc(NC(=O)c2cccc(OCc3ccccc3)c2)c(C(=O)O)c1` [PHA-569974] yielded an MIC of 1 µg/mL (≈ 2.69 µM).

`CC(=O)NCCOc1ccc(C(=O)Nc2ccc(Br)cc2C(=O)O)cc1` yielded an MIC of 64 µg/mL (≈ 152 µM).

Take `N#Cc1ccc(NC(=O)c2ccc(S(=O)(=O)N3CCC3)cc2)c(C(=O)O)c1` [PHA-571239]: inhibition of growth (MIC) required 128 µg/mL (≈ 332 µM).

`COc1ccc(CCOc2cccc(C(=O)Nc3ccc(Br)cc3C(=O)O)c2)cc1` had an MIC of 32 µg/mL (≈ 68 µM).

On to `CCCCCC(=O)c1ccc(C(=O)Nc2ccc(Cl)cc2C(=O)O)cc1`, for which the MIC amounted to 4 µg/mL (≈ 10.7 µM). Against the preceding compound, the MIC is about 8-fold lower.

Turning to `N#Cc1ccc(NC(=O)c2cccc3cccc(C=O)c23)c(C(=O)O)c1`, the MIC was > 128 µg/mL.

Regarding `N#Cc1ccc(C2CC2c2cccc(S(=O)(=O)N3CCc4cc(Cl)ccc43)c2)c(C(=O)O)c1` (stereo not drawn) [PHA-687511], the MIC came to 4 µg/mL (≈ 8.35 µM).

Turning to `COC(=O)c1cc(C(=O)Nc2ccc(Br)cc2C(=O)O)cc([N+](=O)[O-])c1`, the MIC came out at 64 µg/mL (≈ 151 µM).

`C=CCC(CC=C)Oc1ccc(C(=O)Nc2ccc(Br)cc2C(=O)O)cc1` [PHA-571292] had an MIC of 32 µg/mL (≈ 74.4 µM).

`COc1ccc(C(=O)Nc2ccc(Br)cc2C(=O)O)cc1S(=O)(=O)Nc1ccc(Cl)cc1` had an MIC of 16 µg/mL (≈ 29.6 µM).

The compound `Cc1ccc(S(=O)(=O)Cc2ccc(C(=O)Nc3ccc(Br)cc3C(=O)O)cc2)cc1` [PHA-713411] came in with an MIC of 32 µg/mL (≈ 65.5 µM).

`O=C(Nc1ccc(Br)cc1C(=O)O)c1cccc(NS(=O)(=O)c2ccc(OC(F)(F)F)cc2)c1` [PHA-708995] came in with an MIC of 0.125 µg/mL (≈ 0.223 µM).

In the case of `COC(=O)c1ccc(COc2ccc(C(=O)Nc3ccc(Br)cc3C(=O)O)cc2)cc1`, the MIC is > 128 µg/mL.

`CCOCC(=NO)c1ccc(C(=O)Nc2ccc(Cl)cc2C(=O)O)cc1` registered an MIC of 64 µg/mL (≈ 170 µM).

For the compound `COC(=O)c1ccc(C(=O)Nc2ccc(Br)cc2C(=O)O)cc1`, the MIC was found to be 32 µg/mL (≈ 84.6 µM). This MIC is about 2-fold lower than that of the compound before.

The compound `N#Cc1ccc(C(=O)Nc2ccc(Br)cc2C(=O)O)cc1` had an MIC of 128 µg/mL (≈ 371 µM).

As to `COc1cc(C(=O)Nc2ccc(Br)cc2C(=O)O)ccc1C`, the MIC was > 128 µg/mL.

As to `Cc1cc(C(=O)Nc2ccc(C#N)cc2C(=O)O)cc(S(=O)(=O)N2CCc3ccccc32)c1` [PHA-556214], the lowest concentration to inhibit growth (MIC) was 1 µg/mL (≈ 2.17 µM).

For the compound `COc1ccc(C(=O)Nc2ccc(Cl)cc2C(=O)O)cc1[N+](=O)[O-]` [PNU-292070], the “SA 9218 MIC” value turned out to be 2 µg/mL.

For the compound `CCCOc1ccc(C(=O)Nc2ccc(Br)cc2C(=O)O)cc1`, the minimal inhibitory concentration (MIC) came out at 64 µg/mL (≈ 169 µM).

`O=C(Nc1ccc(Br)cc1C(=O)O)c1cc(S(=O)(=O)N2CCc3ccc(Cl)cc32)c(F)cc1Cl` had an MIC of 16 µg/mL (≈ 27.2 µM).

`O=C(COc1ccc(Cl)cc1)c1cccc(C(=O)Nc2ccc(Cl)cc2C(=O)O)c1` returned a minimum inhibitory concentration (MIC) of 8 µg/mL (≈ 18 µM). This MIC is about 2-fold lower than that of the compound before.

`O=C(Nc1ccc(-c2cc(C(F)(F)F)cc(C(F)(F)F)c2)cc1C(=O)O)c1cccc(S(=O)(=O)N2CCc3cc(Cl)ccc32)c1` [PHA-563280]: inhibition of growth (MIC) required 1 µg/mL (≈ 1.49 µM).

On to `COC(=O)COc1cccc(C(=O)Nc2ccc(Br)cc2C(=O)O)c1`, for which the MIC was found to be 32 µg/mL (≈ 78.4 µM).

For `O=C(Nc1ccc(Cl)cc1C(=O)O)c1ccc(I)c(I)c1`, the MIC stood at 2 µg/mL (≈ 3.79 µM).
